Assay [1] can be described thus: Effect of elevating sugar level by metastin derivatives (blood glucose and glucagon). The note with it: Wistar male rats; for blood glucose level: i.v. 80 nmol/kg (FIG. 10); for blood glucagon level: i.v. 80 nmol/kg (FIG. 11). It counts as in vivo, rat. The text has this:
The value indicates (mean±SE) (n=5). Symbol * designates that the P-value is 0.05 or less, when compared to the saline group and symbol ** designates that the P-value is 0.01 or less, when compared to the saline group.
In the figure, symbols open circle, closed circle and closed triangle designate blood glucagon level in the saline group and the 80 nmol/kg KiSS1-305 (Compound No. 305) group, the 80 nmol/kg KiSS1-322 (Compound No. 322) group, respectively. The value indicates (mean±SE) (n=5). Symbol * designates that the P-value is 0.05 or less, when compared to the saline group.
An operation was performed in free moving mature Wistar male rats (weighing […] at the time of operation) in a manner similar to TEST EXAMPLE 1 to collect blood. After the operation, the animal was maintained overnight. […] To prevent blood clotting, 3 μl of 300 KIU/ml aprotinin solution containing 3 mg/ml EDTA had previously been filled in the syringe. […] Blood was collected from the jugular vein by 300 μl each 2, 5, 15, 30, 45 and 60 minutes starting from the intravenous injection. The collected blood was centrifuged (13,000 rpm, 5 minutes) with a high speed refrigerated centrifuge (MR-150, Tomy Seiko Co, Ltd.) to recover the supernatant (plasma). Glucose level in blood was measured using Fuji Drychem 3500 (FUJI FILM) and glucagon level in blood was measured using a glucagon kit “Daiichi” (Daiichi Radioisotope Laboratories Ltd.), as in TEST EXAMPLE 1 or 2.

Assay [2] in a line: Blood testosterone level decreasing effect in mature male rat (2 mM peptide solution, ALZET osmotic pump). It counts as in vivo. The following applies: 2 mM peptide solution in distilled water, ALZET osmotic pump s.c., 6 days, Tables 28 and 29. The procedure: This peptide solution was filled in 5 ALZET osmotic pumps (Model 2001, 0.2 ml in volume, release rate: 0.001 ml/hr, DURECT Corporation). The ALZET pumps filled with the peptide solution were implanted subcutaneously in 5 CD(SD)IGS male rats of 9 weeks old after birth (Charles River Japan, Inc.) on the back under ether anesthesia by one pump for one animal. For negative control, distilled water (Otsuka Pharmaceutical Co., Ltd.) was filled in 5 ALZET osmotic pumps, which were similarly implanted in 5 male CD(SD)IGS rats (Charles River Japan, Inc.), respectively. These pump-implanted rats were fed for 6 days under normal feeding conditions. After weighing, the animal was decapitated to collect blood. After 0.03 ml/ml blood of aprotinin solution (Trasylol, Bayer) containing 0.1 mg/ml EDTA.2Na was added to blood, the mixture was centrifuged at 1,800 G for 25 minutes to isolate/recover plasma. From the plasma obtained, 0.05 ml was applied to radioimmunoassay (DPC.Total Testosterone Kit, Diagnostic Products Corporation) to measure the plasma testosterone level of each rat. The value below the limit of measurement (0.04 ng/ml of plasma level) in radioimmunoassay was treated as 0. A mean value of the testosterone levels from 5 rats receiving the peptide was calculated and a relative value (percent) of the mean value to a mean value from 5 rats receiving distilled water.

A short description of assay [3]: Blood testosterone level decreasing effect in mature male rat (0.1 mM peptide solution). The format is in vivo.
Assay [4] is described as follows: Action of reducing testosterone level in blood in mature male rat (1 mM peptide in 50% DMSO, ALZET osmotic pump). The note with it: 1 mM peptide in 50% DMSO aqueous solution, ALZET osmotic pump s.c., six days. It counts as in vivo.

The record followed here is patent US8778871B2 (Takeda Pharmaceutical Company Limited, priority 2004, dated 2014).

Non-standard residues stand in square brackets, D forms with d. Residues, ends and D or L forms follow the SMILES beside them. *: point of attachment. Propanoyl(3-(3-pyridyl)) = O=C(CCc1cccnc1)*; Arg(Me) = CNC(=N)NCCC[C@H](N)C(=O)O; d4Pal = N[C@H](Cc1ccncc1)C(=O)O; azaGly = NNC(=O)O

Take `CNC(=N)NCCC[C@H](NC(=O)[C@H](CC(C)C)NC(=O)NNC(=O)[C@H](Cc1ccccc1)NC(=O)[C@H](CO)NC(=O)[C@H](CC(N)=O)NC(=O)[C@@H](Cc1ccncc1)NC(=O)[C@H](N)Cc1ccc(O)cc1)C(=O)N[C@@H](Cc1ccccc1)C(N)=O` [Compound No. 305, D-Tyr-D-Pya(4)-Asn-Ser-Phe-AzaGly-Leu-Arg(Me)-Phe-NH2] (H-[dY][d4Pal]NSF[azaGly]L[Arg(Me)]F-NH2): the blood glucose level result in assay [1] is reported as “increase in the blood glucose level”. The blood glucagon level entry in assay [1] is given as “increase in the blood glucagon level”. Also, the “Teststerone level in Blood” value amounted to 2% in assay [2] and 48% in assay [3]. In addition, in assay [4], the “Testosterone level in Blood” value turned out to be 2%.
On to `CNC(=N)NCCC[C@H](NC(=O)[C@H](CC(C)C)NC(=O)NNC(=O)[C@H](Cc1ccccc1)NC(=O)[C@H](CO)NC(=O)[C@H](CC(N)=O)NC(=O)CCc1cccnc1)C(=O)N[C@@H](Cc1ccccc1)C(N)=O` [Compound No. 322, 3-(3-Pyridyl)propionyl-Asn-Ser-Phe-AzaGly-Leu-Arg(Me)-Phe-NH2] ({Propanoyl(3-(3-pyridyl))}-NSF[azaGly]L[Arg(Me)]F-NH2), for which, in assay [1], the blood glucose level result was “increase in the blood glucose level” and the blood glucagon level entry was “increase in the blood glucagon level”.
